Assay results as given in patent publication US20220330549A1, “USE OF N-BENZYLBENZAMIDE-BASED COMPOUND AS HERBICIDE” (Northwest A&F University, priority 2020, published 2022).

Key:
Format in all cases: in vivo
Humulus scandens [1] = experiment: Herbicidal activity test for indoor post-emergence spraying on stems and leaves; parameters: key: grade level by weed remaining vs blank control, e.g. 5 = 10.1-15%; details: 150 g a.i./ha, visual inspection 21 days after treatment
Procedure, shortened: (§1)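 Post-emergence stem and leaf spray in an indoor test following NY/T 1155.4-2006, with weeds sown and grown in a greenhouse. Effect scored visually 21 days after treatment as graded levels, each level set by the percentage of weed remaining relative to the blank control area.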

Barnyard grass [2] = experiment: as above; parameters: key: grade level by weed remaining vs blank control, e.g. 5 = 10.1-15%; details: 150 g a.i./ha, visual inspection 21 days after treatment
Procedure, shortened: as §1

green bristlegrass [3] = experiment: as above; parameters: key: grade level by weed remaining vs blank control, e.g. 5 = 10.1-15%; details: 150 g a.i./ha, visual inspection 21 days after treatment
Procedure, shortened: as §1

Amaranthus retroflexus [4] = experiment: as above; parameters: key: grade level by weed remaining vs blank control, e.g. 5 = 10.1-15%; details: 150 g a.i./ha, visual inspection 21 days after treatment
Procedure, shortened: as §1

Digitaria sanguinalis [5] = experiment: as above; parameters: key: grade level by weed remaining vs blank control, e.g. 5 = 10.1-15%; details: 150 g a.i./ha, visual inspection 21 days after treatment
Procedure, shortened: as §1

Piemarker [6] = experiment: as above; parameters: key: grade level by weed remaining vs blank control, e.g. 5 = 10.1-15%; details: 150 g a.i./ha, visual inspection 21 days after treatment
Procedure, shortened: as §1

Amaranthus retroflexus [7] = experiment: Herbicidal activity test for indoor pre-emergence soil treatment; parameters: key: 1-9 levels; higher = more weed remaining vs blank control; details: 150 g a.i./ha, visual inspection 21 days after treatment
Procedure, shortened: (§2)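 Pre-emergence test following NY/T 1155.3-2006: weed seeds were sown in moistened neutral sandy loam (≤2% organic matter) and covered with 0.5–2.0 cm of soil. After 24 h, the soil was sprayed with a 10% EC diluted in water at 150 g(a.i.)/ha. Damage was scored visually on a 1–9 scale at 21 days.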

Digitaria sanguinalis [8] = experiment: as above; parameters: key: 1-9 levels; higher = more weed remaining vs blank control; details: 150 g a.i./ha, visual inspection 21 days after treatment
Procedure, shortened: as §2

Gramineae = experiment: Post-emergence herbicidal activity test in a paddy field; parameters: key: level scale; higher level = more weed left vs blank control; details: 150 g a.i./ha (penoxsulam control 250 g(a.i.)/h)
Procedure, shortened: (§3)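 Efficacy was visually estimated 15 and 30 days after spraying, grading weed coverage relative to an untreated neighbouring plot (level 2 = 0 to 2.5%, level 9 = 67.6 to 100%). Treatments were 150 g(a.i.)/ha from 10% emulsifiable concentrates applied at the 4-5 leaf rice stage, four repeats of 50 m^2 each.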

Broadleaf weed = experiment: as above; parameters: key: level scale; higher level = more weed left vs blank control; details: 150 g a.i./ha (penoxsulam control 250 g(a.i.)/h)
Procedure, shortened: as §3

Cyperaceae = experiment: as above; parameters: key: level scale; higher level = more weed left vs blank control; details: 150 g a.i./ha (penoxsulam control 250 g(a.i.)/h)
Procedure, shortened: as §3

Portulaca oleracea = experiment: Field test for weed control in a corn field; details: 150 g a.i./ha, after treatment
Procedure, shortened: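 Field efficacy trial in corn following GB/T 17980.42-2000. Test compounds were prepared as 10% emulsifiable concentrates, diluted in water, and sprayed at 150 g(a.i.)/ha when corn had 2 to 5 leaves after sowing. Plots were 20 m^2 with 4 replicates per treatment. Herbicidal activity was scored on a 1-9 scale from weed damage symptoms and severity.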

Convolvulus arvensis = experiment: Field test for weed control in a corn field; details: 150 g a.i./ha, after treatment
Procedure, shortened: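 Field trial of weed control against Convolvulus arvensis in corn, run following GB/T 17980.42-2000. Test agents were formulated as 10% emulsifiable concentrates and sprayed in water at 150 g(a.i.)/ha when corn plants had 2 to 5 leaves. Each treatment was replicated 4 times on 20 m^2 plots, and 25% mesotrione oil dispersion served as the control agent.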

Barnyard grass [9] = experiment: Field test for weed control in a corn field; details: 150 g a.i./ha, 30 days after treatment
Procedure, shortened: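 Corn-field efficacy trial following GB/T 17980.42-2000. Test compounds were formulated as 10% emulsifiable concentrates, diluted in water and sprayed post-emergence at 150 g(a.i.)/ha when corn had 2 to 5 leaves. Each treatment was replicated 4 times on 20 m^2 plots. Barnyard grass control was rated on a 1-9 damage scale.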

green bristlegrass [10] = experiment: Field test for weed control in a corn field; details: 150 g a.i./ha, after treatment
Procedure, shortened: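 Post-emergence weed control was tested in a corn field following GB/T 17980.42-2000. When the corn had 2 leaves to 5 leaves after sowing, 10% emulsifiable concentrates diluted in water were sprayed at 150 g(a.i.)/ha on 20 m^2 plots, four replicates per treatment. Effects on green bristlegrass were scored on a 1-9 damage scale relative to the blank control area.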

Acalypha australis = experiment: Field test for weed control in a corn field; details: 150 g a.i./ha, after treatment
Procedure, shortened: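 Post-emergence field trial in a corn field following GB/T 17980.42-2000. Test compounds were formulated as 10% emulsifiable concentrates, diluted in water, and sprayed at 150 g(a.i.)/ha when corn had 2 to 5 leaves, with 4 replicates on 20 m^2 plots. Mesotrione 25% oil dispersion served as the control agent. Weed control was scored on a 1-9 scale.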

Amaranthus retroflexus [11] = experiment: Field test for weed control in a corn field; details: 150 g a.i./ha, 30 days after treatment
Procedure, shortened: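 Field efficacy trial in a corn field following GB/T 17980.42-2000. Test compounds were formulated as 10% emulsifiable concentrates, diluted in water and sprayed post-emergence when corn had 2 to 5 leaves. Each treatment covered 20 m^2 with 4 replicates. A 25% mesotrione oil dispersion served as control. Damage to Amaranthus retroflexus was rated on a 1-9 scale against untreated blank plots.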

goosegrass = experiment: Field test for weed control in a corn field; details: 150 g a.i./ha, after treatment
Procedure, shortened: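 Weed control efficacy against goosegrass was tested in a corn field following GB/T 17980.42-2000. Compounds formulated as 10% emulsifiable concentrates were diluted in water and sprayed post-emergence at 150 g(a.i.)/ha when corn had 2 to 5 leaves, with 4 replicates of 20 m^2 plots. Herbicidal activity was rated on a 1-9 scale by damage symptoms and severity.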

Solanum nigrum = experiment: Field test for weed control in a corn field; details: 150 g a.i./ha, 30 days after treatment
Procedure, shortened: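 Post-emergence weed control was tested in a corn field following GB/T 17980.42-2000. Compounds were made into 10% emulsifiable concentrates, diluted in water and sprayed at 150 g(a.i.)/ha when corn had 2 to 5 leaves after sowing, in 20 m^2 plots with 4 replicates. Effects on Solanum nigrum were graded on a 1-9 scale relative to the blank control area.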

Digitaria sanguinalis [12] = experiment: Field test for weed control in a corn field; details: 150 g a.i./ha, after treatment
Procedure, shortened: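 Field trial in a corn field following GB/T 17980.42-2000. Test compounds were formulated as 10% emulsifiable concentrates, diluted in water and sprayed post-emergence at 150 g(a.i.)/ha when corn had 2 to 5 leaves, with 4 replicates on 20 m^2 plots. Control of Digitaria sanguinalis was scored on a 1-9 scale based on weed damage relative to the untreated blank area.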

nutgrass flatsedge = experiment: Field test for weed control in a corn field; details: 150 g a.i./ha, after treatment
Procedure, shortened: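 A corn field efficacy trial following GB/T 17980.42-2000 assessed post-emergence control of nutgrass flatsedge. Test compounds were formulated as 10% emulsifiable concentrates, diluted in water, and sprayed at 150 g(a.i.)/ha when the corn had 2 to 5 leaves. Each treatment had 4 replicates on 20 m^2 plots. Herbicidal activity was graded on a 1-9 scale by damage symptoms and severity.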

Chenopodium album = experiment: Field test for weed control in a corn field; details: 150 g a.i./ha, after treatment
Procedure, shortened: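 A corn-field efficacy trial following GB/T 17980.42-2000 tested post-emergence control of Chenopodium album. Test compounds formulated as 10% emulsifiable concentrates were diluted in water and sprayed at 150 g(a.i.)/ha when the corn had 2 leaves to 5 leaves, on 20 m^2 plots with 4 replicates. Herbicidal activity was rated on a 1-9 scale by damage symptoms and severity.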

Humulus scandens [13] = experiment: Herbicidal activity test for indoor pre-emergence soil treatment; details: 150 g a.i./ha, visual inspection 21 days after treatment
Procedure, shortened: as §2

Barnyard grass [14] = experiment: as above; parameters: key: level 1-9; higher = more weed remaining vs blank control; details: 150 g a.i./ha, visual inspection 21 days after treatment
Procedure, shortened: as §2

green bristlegrass [15] = experiment: as above; parameters: key: level 1-9; higher = more weed remaining vs blank control; details: 150 g a.i./ha, visual inspection 21 days after treatment
Procedure, shortened: as §2

Piemarker [16] = experiment: as above; parameters: key: level 1-9; higher = more weed remaining vs blank control; details: 150 g a.i./ha, visual inspection 21 days after treatment
Procedure, shortened: as §2

Compound | Herbicidal Activity Humulus scandens (Humulus scandens [1]) | Herbicidal Activity Barnyard grass (Barnyard grass [2]) | Herbicidal Activity Green bristlegrass (green bristlegrass [3]) | Herbicidal Activity Amaranthus retroflexus (Amaranthus retroflexus [4]) | Herbicidal Activity Digitaria sanguinalis (Digitaria sanguinalis [5]) | Herbicidal Activity Piemarker (Piemarker [6]) | Herbicidal Activity Amaranthus retroflexus (Amaranthus retroflexus [7]) | Herbicidal Activity Digitaria sanguinalis (Digitaria sanguinalis [8]) | Herbicidal activity 15 days after treatment Gramineae (Gramineae) | Herbicidal activity 30 days after treatment Gramineae (Gramineae) | Herbicidal activity 15 days after treatment Broadleaf weed (Broadleaf weed) | Herbicidal activity 30 days after treatment Broadleaf weed (Broadleaf weed) | Herbicidal activity 15 days after treatment Cyperaceae (Cyperaceae) | Herbicidal activity 30 days after treatment Cyperaceae (Cyperaceae) | Post-emergence weed control effect, Portulaca oleracea (Portulaca oleracea) | Post-emergence weed control effect, Convolvulus arvensis (Convolvulus arvensis) | Post-emergence weed control effect, Barnyard grass (Barnyard grass [9]) | Post-emergence weed control effect, Green bristlegrass (green bristlegrass [10]) | Post-emergence weed control effect, Acalypha australis (Acalypha australis) | Post-emergence weed control effect, Amaranthus retroflexus (Amaranthus retroflexus [11]) | also measured
Cc1cccc(C(=O)NCc2ccc(F)cc2)c1 [Compound B02] | 1 | 1 | 1 | 1 | 1 | 1 | 1 | 2 (equivalent to 0 to 2.5% of the weed in the blank control area) | 2 (equivalent to 0 to 2.5% of the weed in the blank control area) | 2 (equivalent to 0 to 2.5% of the weed in the blank control area) | 1 | 1 | 1 | 1 | 1 | 1 | 1 | 1 | 2 (equivalent to 0 to 2.5% of the weed in the blank control area) | 1 | Post-emergence weed control effect, Goose grass (goosegrass): 2 (equivalent to 0 to 2.5% of the weed in the blank control area); Post-emergence weed control effect, Solanum nigrum (Solanum nigrum): 2 (equivalent to 0 to 2.5% of the weed in the blank control area); Post-emergence weed control effect, Digitaria sanguinalis (Digitaria sanguinalis [12]): 2 (equivalent to 0 to 2.5% of the weed in the blank control area); Post-emergence weed control effect, Nutgrass flatsedge (nutgrass flatsedge): 2 (equivalent to 0 to 2.5% of the weed in the blank control area); Post-emergence weed control effect, Chenopodium album (Chenopodium album): 1; Herbicidal Activity Humulus scandens (Humulus scandens [13]): 2 (equivalent to 0 to 2.5% of the weed in the blank control area); Herbicidal Activity Barnyard grass (Barnyard grass [14]): 1; Herbicidal Activity Green bristlegrass (green bristlegrass [15]): 1; Herbicidal Activity Piemarker (Piemarker [16]): 2 (equivalent to 0 to 2.5% of the weed in the blank control area)
Cc1cccc(C(=O)NCc2cc(F)cc(Cl)c2)c1 [Compound B07] | 1 | 1 | 1 | 1 | 1 | 1 | 2 (equivalent to 0 to 2.5% of the weed in the blank control area) | 1 | 2 (equivalent to 0 to 2.5% of the weed in the blank control area) | 2 (equivalent to 0 to 2.5% of the weed in the blank control area) | 1 | 1 | 1 | 1 | 1 | 1 | 1 | 2 (equivalent to 0 to 2.5% of the weed in the blank control area) | 2 (equivalent to 0 to 2.5% of the weed in the blank control area) | 1 | Post-emergence weed control effect, Goose grass (goosegrass): 2 (equivalent to 0 to 2.5% of the weed in the blank control area); Post-emergence weed control effect, Solanum nigrum (Solanum nigrum): 2 (equivalent to 0 to 2.5% of the weed in the blank control area); Post-emergence weed control effect, Digitaria sanguinalis (Digitaria sanguinalis [12]): 2 (equivalent to 0 to 2.5% of the weed in the blank control area); Post-emergence weed control effect, Nutgrass flatsedge (nutgrass flatsedge): 2 (equivalent to 0 to 2.5% of the weed in the blank control area); Post-emergence weed control effect, Chenopodium album (Chenopodium album): 1; Herbicidal Activity Humulus scandens (Humulus scandens [13]): 3 (equivalent to 2.6 to 5% of the weed in the blank control area); Herbicidal Activity Barnyard grass (Barnyard grass [14]): 1; Herbicidal Activity Green bristlegrass (green bristlegrass [15]): 1; Herbicidal Activity Piemarker (Piemarker [16]): 1
